In patent publication US20240246937A1 (MERCK SHARP & DOHME LLC, priority 2021, published 2024):

Target: recombinant IL4I1 (Homo sapiens (Human), UniProt Q96RQ9)
Test: IL4I1 Enzymatic Assay (Amplex Red/HRP coupled fluorescence detection of H2O2)
Assay type: biochemical
Conditions: 240 min; recombinant IL4I1, four-hour pre-incubation with compound
In short: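 Ten-point, 1:3 compound titrations were fitted by four-parameter sigmoidal regression to give EC50. Resorufin fluorescence (544/590 nm) from Amplex Red/HRP-coupled H2O2 detection was read 120 min after adding 1 mM each aromatic amino acid to 1 nM IL4I1, following a 4 h compound pre-incubation in pH 7.0 Hepes buffer.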

Chain of recombinant IL4I1 (Q96RQ9 22-567): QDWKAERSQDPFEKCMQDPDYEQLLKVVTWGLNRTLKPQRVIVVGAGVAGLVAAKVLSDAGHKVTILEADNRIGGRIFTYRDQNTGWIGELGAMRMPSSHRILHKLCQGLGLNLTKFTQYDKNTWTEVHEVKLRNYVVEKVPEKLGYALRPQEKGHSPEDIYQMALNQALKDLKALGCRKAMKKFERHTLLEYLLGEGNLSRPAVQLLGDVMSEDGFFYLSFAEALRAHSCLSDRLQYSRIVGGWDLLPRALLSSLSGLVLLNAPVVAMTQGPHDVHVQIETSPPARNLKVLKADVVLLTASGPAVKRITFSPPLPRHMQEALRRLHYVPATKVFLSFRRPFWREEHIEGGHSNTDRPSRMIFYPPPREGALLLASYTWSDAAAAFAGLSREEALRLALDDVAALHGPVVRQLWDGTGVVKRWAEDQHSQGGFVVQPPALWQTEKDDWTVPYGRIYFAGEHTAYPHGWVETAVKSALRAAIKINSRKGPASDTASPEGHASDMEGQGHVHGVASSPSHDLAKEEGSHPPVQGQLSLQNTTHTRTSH

Compound	EC50 [nM]
O=C1C(=O)N([C@H]2C[C@H]3C[C@H]3C2)CCN1Cc1nnc(-c2cccc(F)c2)s1 [Example 42, 1-((cis)-bicyclo[3.1.0]hexan-3-yl)-4-((5-(3-fluorophenyl)-1,3,4-thiadiazol-2-yl)methyl)piperazine-2,3-dione]	5
O=C1C(=O)N(C2CCC2)CCN1Cc1noc(-c2ccccn2)c1Br [Example 432, 1-((4-bromo-5-(pyridin-2-yl)isoxazol-3-yl)methyl)-4-cyclobutylpiperazine-2,3-dione]	17
O=C1C(=O)N([C@@H]2CC[C@@H](c3ccccc3)C2)CCN1Cc1nnc(-c2ccccc2)s1 (single isomer, unassigned) [Example 440D, (R or S, R or S)-1-((5-phenyl-1,3,4-thiadiazol-2-yl)methyl)-4-(3-phenylcyclopentyl)piperazine-2,3-dione]	8
N#CC1(N2CCN(Cc3nnc(-c4ccccc4)s3)C(=O)C2=O)CC1 [Example 308, 1-(2,3-dioxo-4-((5-phenyl-1,3,4-thiadiazol-2-yl)methyl)piperazin-1-yl)cyclopropane-1-carbonitrile]	35
O=C1C(=O)N(C23CC(F)(C2)C3)CCN1Cc1cc(-c2cccnc2)no1 [Example 240, 1-(3-fluorobicyclo[1.1.1]pentan-1-yl)-4-((3-(pyridin-3-yl)isoxazol-5-yl)methyl)piperazine-2,3-dione]	995
O=C1C(=O)N(C23CC(F)(C2)C3)CCN1Cc1cc(-c2cccnc2)on1 [Example 256, 1-(3-fluorobicyclo[1.1.1]pentan-1-yl)-4-((5-(pyridin-3-yl)isoxazol-3-yl)methyl)piperazine-2,3-dione]	533
CC(CF)N1CCN(Cc2ncc(-c3ccccc3)cn2)C(=O)C1=O (centres unmarked) [Example 288, 1-(1-fluoropropan-2-yl)-4-((5-phenylpyrimidin-2-yl)methyl)piperazine-2,3-dione]	37
N#CC1(n2ccn(Cc3ccc(-c4ccccn4)cn3)c(=O)c2=O)CC1 [Example 92, 1-(4-([2,3′-bipyridin]-6′-ylmethyl)-2,3-dioxo-3,4-dihydropyrazin-1(2H)-yl)cyclopropane-1-carbonitrile]	155
O=C1C(=O)N(C2CCCC2)CCN1CCc1cc2ccc(Cl)cc2nn1 [Example 268, 1-(2-(7-chlorocinnolin-3-yl)ethyl)-4-cyclopentylpiperazine-2,3-dione]	15
O=C1C(=O)N(C2CCCC2)CCN1CCc1cc(-c2ccccc2)on1 [Example 119, 1-cyclopentyl-4-(2-(5-phenylisoxazol-3-yl)ethyl)piperazine-2,3-dione]	4
O=c1c(=O)n(C2CCCC2)ccn1Cc1cc(-c2cccc(F)c2)no1 [Example 155, 1-cyclopentyl-4-((3-(3-fluorophenyl)isoxazol-5-yl)methyl)-1,4-dihydropyrazine-2,3-dione]	2
O=c1c(=O)n(C2(CF)CC2)ccn1Cc1ccc(-c2ccccc2F)nn1 [Example 242, 1-(1-(fluoromethyl)cyclopropyl)-4-((6-(2-fluorophenyl)pyridazin-3-yl)methyl)-1,4-dihydropyrazine-2,3-dione]	32
O=C1C(=O)N(C23CC(C2)C3)CCN1Cc1cc(-c2ccc(F)cc2)on1 [Example 418, 1-(bicyclo[1.1.1]pentan-1-yl)-4-((5-(4-fluorophenyl)isoxazol-3-yl)methyl)piperazine-2,3-dione]	6
O=C1C(=O)N(C2CC(C3CC3)C2)CCN1Cc1nnc(-c2ccccc2)s1 (centres unmarked) [Example 291, 1-(3-cyclopropylcyclobutyl)-4-((5-phenyl-1,3,4-thiadiazol-2-yl)methyl)piperazine-2,3-dione]	4
O=C1C(=O)N([C@@H]2CC[C@@H](c3ccccc3)C2)CCN1Cc1nnc(-c2ccccc2)s1 (single isomer, unassigned) [Example 440A, (R or S, R or S)-1-((5-phenyl-1,3,4-thiadiazol-2-yl)methyl)-4-(3-phenylcyclopentyl)piperazine-2,3-dione]	5
O=c1c(=O)n(C23CC(F)(C2)C3)ccn1Cc1ccc(-n2cccn2)nc1 [Example 220, 1-((6-(1H-pyrazol-1-yl)pyridin-3-yl)methyl)-4-(3-fluorobicyclo[1.1.1]pentan-1-yl)-1,4-dihydropyrazine-2,3-dione]	50
O=C1C(=O)N(C2CCCC2)CCN1Cc1ncc(-c2nccs2)cc1F [Example 139, 1-cyclopentyl-4-((3-fluoro-5-(thiazol-2-yl)pyridin-2-yl)methyl)piperazine-2,3-dione]	26
O=c1c(=O)n(C2CCC2)ccn1Cc1cnc(-c2ccccc2)nc1 [Example 130, 1-cyclobutyl-4-((2-phenylpyrimidin-5-yl)methyl)-1,4-dihydropyrazine-2,3-dione]	5
N#CC1(n2ccn(Cc3cc(-c4cccnc4)no3)c(=O)c2=O)CC1 [Example 222, 1-(2,3-dioxo-4-((3-(pyridin-3-yl)isoxazol-5-yl)methyl)-3,4-dihydropyrazin-1(2H)-yl)cyclopropane-1-carbonitrile]	316
O=C1C(=O)N(C2CCCC2)CCN1Cc1ccc(-c2cnco2)nn1 [Example 6, 1-cyclopentyl-4-((6-(oxazol-5-yl)pyridazin-3-yl)methyl)piperazine-2,3-dione]	43
O=C1C(=O)N([C@H]2C[C@H](c3ccccc3)C2)CCN1Cc1ccc(-c2ccccc2)nc1 [Example 266B, trans-1-(3-phenylcyclobutyl)-4-((6-phenylpyridin-3-yl)methyl)piperazine-2,3-dione]	4
O=C1C(=O)N(C2CCCC2)CCN1Cc1ccc(N2CCCC2)nn1 [Example 314, 1-cyclopentyl-4-((6-(pyrrolidin-1-yl)pyridazin-3-yl)methyl)piperazine-2,3-dione]	43
CC(C)(C)N1CCN(Cc2nnc(-c3ccccc3)s2)C(=O)C1=O [Example 307, 1-(tert-butyl)-4-((5-phenyl-1,3,4-thiadiazol-2-yl)methyl)piperazine-2,3-dione]	20
O=C1C(=O)N(C2CCC2)CCN1Cc1ccc(-c2nccs2)nn1 [Example 365, 1-cyclobutyl-4-((6-(thiazol-2-yl)pyridazin-3-yl)methyl)piperazine-2,3-dione]	17
O=c1c(=O)n(C23CC(C2)C3)ccn1Cc1ccc(-c2ccccc2)cn1 [Example 115, 1-(bicyclo[1.1.1]pentan-1-yl)-4-((5-phenylpyridin-2-yl)methyl)-1,4-dihydropyrazine-2,3-dione]	4
O=C1C(=O)N(C2CCC2)CCN1Cc1cnc(-c2ccccc2)nc1 [Example 107, 1-cyclobutyl-4-((2-phenylpyrimidin-5-yl)methyl)piperazine-2,3-dione]	13
O=C1C(=O)N(C2CCCC2)CCN1CCc1cc2ccccc2nn1 [Example 269, 1-(2-(cinnolin-3-yl)ethyl)-4-cyclopentylpiperazine-2,3-dione]	49
O=c1c(=O)n(C23CC(F)(C2)C3)ccn1Cc1ccc(-c2cccnc2)nn1 [Example 215, 1-(3-fluorobicyclo[1.1.1]pentan-1-yl)-4-((6-(pyridin-3-yl)pyridazin-3-yl)methyl)-1,4-dihydropyrazine-2,3-dione]	57
O=C1C(=O)N(C2CCCC2)CCN1Cc1nnc(N2CC[C@H](CF)C2)s1 [Example 312, (S)-1-cyclopentyl-4-((5-(3-(fluoromethyl)pyrrolidin-1-yl)-1,3,4-thiadiazol-2-yl)methyl)piperazine-2,3-dione]	69
